This is an account of results in patent US20220409643A1, “ROR Gamma T Inhibitors and Topical Uses Thereof” (Dermira, inc., priority 2019, published 2022).

The term inhibition denotes the change of the read-out against control, counted positive when it falls.

One assay concerns IL17A. The assay is described as follows: skin Resident Immune Cell Assay (sRICA), Th17 model, IL17A protein in media. In kind it is cell-based. As to conditions: 100 uM solution in 1% DMSO/OD applied topically to human skin; media collected 24 hours after Th17 activation. Here is the method:
A skin Resident Immune Cell Assay (sRICA) was used to test compounds for reduction of IL-17A protein upregulation in the Th17 sRICA model. In this model, human surgical skin waste was cultured in a transwell system, with the dermis in contact with cell culture media and the stratum corneum exposed to air. To perform the assay, each human skin sample was defatted and dermatomed to 750μm. Next, 8 mm punch biopsies were obtained and placed in a membrane transwell. The transwells were inserted into culture wells with complete media, and a cocktail of cytokines and antibodies were added to promote skin resident immune cell polarization.
RORγt inhibitors were prepared as a 100 uM solution in 1% DMSO/OD. […] of the prepared topical solution was applied to sRICA wells prepared for topical drug evaluation. Drugs were allowed to penetrate the skin overnight, for up to 24 hours prior to Th17 activation. Media was collected 24 hours after Th17 activation for IL17A protein assessment. IL17A protein was evaluated using the Quanterix IL17A detection kit on the SiMoA platform (via CRO Translational Biosciences). There was significant upregulation of IL17A with Th17 activation. Each study was normalized to the % max of IL17A production (i.e. the average IL17A concentration of Th17 activated skin alone) was set to 100%, all other values (untreated no activation and treated samples) were obtained as a percentage of this. […]
As for `COCC(C)(C)c1ccc(NC(=O)[C@H]2c3ccc(OC)cc3CCN2C(=O)c2cc(O)no2)cc1F` [(1R)-N-(3-fluoro-4-(1-methoxy-2-methylpropan-2-yl)phenyl)-2-((3-hydroxy-1,2-oxazol-5-yl)carbonyl)-6-methoxy-1,2,3,4-tetrahydroisoquinoline-1-carboxamide], the inhibition at 100 µM worked out at 55%.
Still for that read-out and setting: the same measure for `COc1ccc2c(c1)CCN(C(=O)Cc1cc(O)no1)[C@H]2C(=O)Nc1cc(F)c(C(C)(C)COCC(F)F)c(F)c1` [(1R)-N-(4-(1-(2,2-difluoroethoxy)-2-methylpropan-2-yl)-3,5-difluorophenyl)-2-((3-hydroxy-1,2-oxazol-5-yl)acetyl)-6-methoxy-1,2,3,4-tetrahydro-isoquinoline-1-carboxamide]: 39.3%; for `COc1ccc2c(c1)CCN(C(=O)c1cc(O)no1)[C@H]2C(=O)Nc1cc(F)c(C(C)(C)COCC(F)F)c(F)c1` [(1R)-N-(4-(1-(2,2-difluoroethoxy)-2-methylpropan-2-yl)-3,5-difluorophenyl)-2-((3-hydroxy-1,2-oxazol-5-yl)carbonyl)-6-methoxy-1,2,3,4-tetarhydroisoquinoline-1-carboxamide]: 30.3%; for `COc1ccc2c(c1)CCN(C(=O)Cc1cc(O)no1)[C@H]2C(=O)Nc1cc(F)c(C(C)(C)COCC2CC2)c(F)c1` [(1R)-N-(4-(1-(cyclopropyl-methoxy)-2-methylpropan-2-yl)-3,5-difluorophenyl)-2-((3-hydroxy-1,2-oxazol-5-yl)acetyl)-6-methoxy-1,2,3,4-tetrahydro-isoquinoline-1-carboxamide]: 61.7%.
Same read-out and setting: the same measure for `CCOCC(C)(C)c1c(F)cc(NC(=O)[C@H]2c3ccc(OC)cc3CCN2C(=O)Cc2cc(O)no2)cc1F` [(1R)-N-(4-(1-ethoxy-2-methylpropan-2-yl)-3,5-difluorophenyl)-2-((3-hydroxy-1,2-oxazol-5-yl)acetyl)-6-methoxy-1,2,3,4-tetrahydro-isoquinoline-1-carboxamide]: 54.9%; for `CCOCC(C)(C)c1c(F)cc(NC(=O)[C@H]2c3ccc(OC)cc3CCN2C(=O)c2cc(O)no2)cc1F` [(1R)-N-(4-(1-ethoxy-2-methylpropan-2-yl)-3,5-difluorophenyl)-2-((3-hydroxy-1,2-oxazol-5-yl)carbonyl)-6-methoxy-1,2,3,4-tetrahydro-isoquinoline-1-carboxamide]: 56.1%; for `COc1ccc2c(c1)CCN(C(=O)Cc1cc(O)no1)[C@H]2C(=O)Nc1cc(F)c(C(C)(C)C)c(F)c1` [(1R)-N-(4-tert-butyl-3,5-difluorophenyl)-2-((3-hydroxy-1,2-oxazol-5-yl)acetyl)-6-methoxy-1,2,3,4-tetrahydroisoquinoline-1-carboxamide]: -10.9%.

Still in this assay, the particulars now being: Homo sapiens, 24 h, 100 uM solution in 1% DMSO/OD applied topically to human skin; media collected 24 hours after Th17 activation.
For the molecule `COCc1ccc2c(c1)CCN(C(=O)Cc1cc(O)no1)[C@H]2C(=O)Nc1ccc([Si](C)(C)C)c(F)c1` [(1R)-N-(3-fluoro-4-(trimethylsilyl)phenyl)-2-((3-hydroxy-1,2-oxazol-5-yl)acetyl)-6-(methoxymethyl)-1,2,3,4-tetrahydroisoquinoline-1-carboxamide], the inhibition at 100 µM stood at 69.9%.
Same read-out and setting: the same measure for `COc1ccc2c(c1)CCN(C(=O)Cc1cc(O)no1)[C@H]2C(=O)Nc1ccc([Si](C)(C)C)c(F)c1` [(1R)-N-(3-fluoro-4-(trimethylsilyl)phenyl)-2-((3-hydroxy-1,2-oxazol-5-yl)acetyl)-6-methoxy-1,2,3,4-tetrahydroisoquinoline-1-carboxamide]: 31.2%; for `COCc1ccc2c(c1)CCN(C(=O)c1cc(O)no1)[C@H]2C(=O)Nc1ccc([Si](C)(C)C)c(F)c1` [(1R)-N-(3-fluoro-4-(trimethylsilyl)phenyl)-2-((3-hydroxy-1,2-oxazol-5-yl)carbonyl)-6-methoxymethyl-1,2,3,4-tetrahydroisoquinoline-1-carboxamide]: 62.2%.
